Where two headings read alike, the source gives them in different places.
Key:
[1] = target: T1, (+)-limonene synthase [(+)-LS] (Citrus sinensis, UniProt A0A1C9J6A7); assay: X-ray crystal structure; format: biochemical
[2] = target: T1, (+)-limonene synthase [(+)-LS]; assay: X-ray crystal structure; format: biochemical; remark: listed apart in the source

T1 sequence (A0A1C9J6A7 53-607): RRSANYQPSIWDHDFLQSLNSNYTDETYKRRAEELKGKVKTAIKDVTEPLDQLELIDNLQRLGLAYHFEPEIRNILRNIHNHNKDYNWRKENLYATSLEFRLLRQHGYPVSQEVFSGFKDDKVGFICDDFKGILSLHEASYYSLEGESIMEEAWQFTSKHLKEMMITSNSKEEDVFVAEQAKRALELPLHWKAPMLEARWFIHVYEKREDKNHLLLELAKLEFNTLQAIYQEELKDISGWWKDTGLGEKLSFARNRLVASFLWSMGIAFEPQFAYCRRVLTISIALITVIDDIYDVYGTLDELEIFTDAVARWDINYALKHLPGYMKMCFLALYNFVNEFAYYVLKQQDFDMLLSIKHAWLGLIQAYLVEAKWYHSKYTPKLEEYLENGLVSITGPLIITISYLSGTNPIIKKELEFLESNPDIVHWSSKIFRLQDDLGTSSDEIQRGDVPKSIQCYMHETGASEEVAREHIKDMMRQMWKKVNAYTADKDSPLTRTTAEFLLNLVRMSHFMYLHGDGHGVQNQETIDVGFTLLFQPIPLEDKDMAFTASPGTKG

Question: With `CC(C)=CCC/C(C)=C(\F)COP(=O)(O)OP(=O)(O)O` [FGPP, 2-fluorogeranyl diphosphate] as the molecule, how does the Ki [1] read?
Answer: 2.4 ± 0.5 µM

Question: `CC(C)=CCC/C(C)=C(/F)COP(=O)(O)OP(=O)(O)O` [FNPP, 2-fluoroneryl diphosphate] was tested. Which Ki [2] did it give?
Answer: 39.5 ± 5.2 µM
